Paper PMC10574185, “Encapsulation and Biological Activity of Hesperetin Derivatives with HP-β-CD” (Molecules, 2023)
Converted amounts (≈) assume the structure as drawn. Where two headings read alike, the source gives them in different places.

Assays:
[1] = DPPH assay (antioxidant activity); conditions: concentration 0.1 mg/mL, mean ± SD
Description: (§1) To evaluate the antioxidant ability of the tested systems, antioxidant analysis was performed. Antioxidants can scavenge hydroxyl radicals in two ways: by reacting directly with hydroxyl radicals (DPPH^•, ABTS^•+) or indirectly inhibiting the formation of hydroxyl radicals by chelating metal ions involved in the production of hydroxyl radicals. The antioxidant activity of the systems studied was investigated by using DPPH^• scavenging, ABTS^•+ scavenging ability, and Fe^2+-chelating ability. In this study, the antioxidant activity of pure hesperetin and its Schiff bases (HHSB, HIN, and HTSC) and HP-β-CD complexes were compared, and the positive control was Trolox.
The detailed methodology of DPPH assay was described in the previous paper by Sykuła et al..

[2] = Phase solubility studies with HP-β-CD; type: physicochemical
Description: The purpose of this part of the study was to determine the solubility of compounds of hesperetin and its Schiff bases (HHSB, HIN, and HTSC) in aqueous solution at different pHs and temperatures, and the effect of their inclusion in modified HP-β-CD on the aqueous solubility of these compounds at different pH values.
The effect of the presence of HP-β-CD at different temperatures (25, 37, and 60 °C) was determined by developing phase solubility diagrams.
In accordance with the methodology described in Section 3.4, excess amounts of each tested substance were added to aqueous solution with increasing concentration of HP-β-CD up to 16 mM, respectively, in 2 mL of 100 mM sodium acetate buffer (pH 3.6), 100 mM sodium phosphate buffer (pH 6.5) or 100 mM sodium borate buffer (pH 8.5).
Phase solubility studies were conducted according to [64] with some modifications. Excess amounts of each tested substance were added to aqueous solution with increasing concentration of HP-β-CD up to 16 mM, in 2 mL of 100 mM sodium acetate buffer (pH 3.6), 100 mM sodium phosphate buffer (pH 6.5), or 100 mM sodium borate buffer (pH 8.5), respectively. The samples were maintained in an ultrasonic bath at various temperatures (25, 37, and 60 °C) for 60 min to reach equilibrium. The aqueous solutions were then filtered through 0.45 µm acetate cellulose (CA) membrane filter and diluted. The tested compound concentration on each clear filtrate was spectrophotometrically determined by measuring at their wavelength maximum.
The complexation constant (Kc) between studied molecules and HP-β-CD was determined by using Equation (1):(1) Kc=slope/S0 (1−slope) where S0 means the water solubility of the studied substance, and “slope” means the slope of the phase solubility diagram.
Complexation efficiency was calculated from the slope of the phase solubility diagram using Equation (2):(2) CE=S0×Kc=slope/1−slope
The CE was also applied to evaluate the molar ratio in solution of tested systems using Equation (3):(3) Compound:HP−β−CD=1:(1+1/CE)

[3] = tested on: Escherichia coli ATCC 11303; assay: Minimal inhibition concentration (dilution + diffusion-well); type: cell-based; conditions: ATCC11303, 37 °C, 18 h
Description: The MIC was performed for compounds and strains sensitive to their action in the antagonistic test. Minimum inhibitory concentration was determined by combining the dilution method with the diffusion-well method. Test compounds at a concentration of 500 μM were prepared in 5% (w/w) DMSO. Surface layer of microorganisms, against which antagonistic activity was noted, were prepared in the same way as for the antagonistic test. Then, two-fold sequential dilutions of the test compounds in the range of 500 µM to 62.5 µM were prepared. Wells with a diameter of 8 mm cut in the Mueller–Hinton Agar (Merck, Darmstadt, Germany) with the test strain were added with 50 µL of the prepared dilutions, which corresponded to the following concentrations of the tested compounds: […], 1.25 mM, 0.625 mM, and […]. Petri dishes prepared in this way were incubated at 37 °C for 18 h. After a given time, the MIC value was read. The MIC concentration expressed in µM was the first concentration of the tested compounds at which growth inhibition of the test strain was observed.

[4] = ABTS^•+ radical cation decolorization assay; conditions: concentration 0.1 mg/mL, mean ± SD
Description: as §1
Antioxidant activity using ABTS^•+ cation radical scavenging was determined according to a modified method. ABTS solution (2.5 mM) was mixed with 1.0 mM potassium persulfate solution and left at room temperature in the dark for 12-24 h. After this time, the absorbance of the finished ABTS^•+ solution was corrected with ethanol to 0.70 ± 0.02 at 745 nm. A total of 100 µL of the sample was reacted for 5 min with 2 mL of ABTS^•+ solution (A745 nm = 0.70 ± 0.02). The absorbance value of the reaction mixture was measured at 745 nm. […] Scavenging activity (%) = [1 − (Asample − Ablank)/Acontrol] × 100%(4) where Acontrol is the absorbance value of the control (ABTS^•+ solution with water), Ablank is the absorbance value of samples mixed with anhydrous ethanol, and Asample is the absorbance value of the added test sample to ABTS^•+ solution at 745 nm, respectively.

COc1ccc(C2C/C(=N\NC(=O)c3ccncc3)c3c(O)cc(O)cc3O2)cc1O (racemic) [HIN]
DPPH antioxidant activity [1]: 34.62 ± 3.8%
CE complexation efficiency ([2]; 25 °C, pH 3.6, with HP-β-CD): 0.7%
Kc complexation constant ([2]; 25 °C, pH 3.6, with HP-β-CD): 102 ± 43 M⁻¹
CE complexation efficiency ([2]; 25 °C, pH 6.5, with HP-β-CD): 0.2%
Kc complexation constant ([2]; 25 °C, pH 6.5, with HP-β-CD): 39 ± 3.6 M⁻¹
CE complexation efficiency ([2]; 25 °C, pH 8.5, with HP-β-CD): 1.3%
Kc complexation constant ([2]; 25 °C, pH 8.5, with HP-β-CD): 143 ± 1.6 M⁻¹
CE complexation efficiency ([2]; 37 °C, pH 3.6, with HP-β-CD): 1.3%
Kc complexation constant ([2]; 37 °C, pH 3.6, with HP-β-CD): 145 ± 13 M⁻¹
CE complexation efficiency ([2]; 37 °C, pH 6.5, with HP-β-CD): 0.04%
Kc complexation constant ([2]; 37 °C, pH 6.5, with HP-β-CD): 25 ± 3.9 M⁻¹
CE complexation efficiency ([2]; 37 °C, pH 8.5, with HP-β-CD): 0.04%
Kc complexation constant ([2]; 37 °C, pH 8.5, with HP-β-CD): 28 ± 3.9 M⁻¹
increase of solubility with HP-β-CD ([2]; 60 °C, pH 3.6): five-fold
CE complexation efficiency ([2]; 60 °C, pH 3.6, with HP-β-CD): 0.3%
Kc complexation constant ([2]; 60 °C, pH 3.6, with HP-β-CD): 62 ± 1.7 M⁻¹
increase of solubility with HP-β-CD ([2]; 60 °C, pH 6.5): five-fold
CE complexation efficiency ([2]; 60 °C, pH 6.5, with HP-β-CD): 0.3%
Kc complexation constant ([2]; 60 °C, pH 6.5, with HP-β-CD): 61 ± 2.6 M⁻¹
CE complexation efficiency ([2]; 60 °C, pH 8.5, with HP-β-CD): 3.7%
Kc complexation constant ([2]; 60 °C, pH 8.5, with HP-β-CD): 132 ± 23 M⁻¹
solubility at 60 min ([2]; aqueous buffer solutions, 25 °C, pH 3.6 to 8.5, read-out: solubility, increasing trend with increasing pH): 17 to 90 µM (≈ 7.16 to 37.9 µg/mL)
solubility at 60 min ([2]; aqueous buffer, thermodynamic from solid, 25 °C, pH 3.6 sodium acetate buffer, without cyclodextrin, read-out: solubility without HP-β-CD (value in brackets) (converted)): 29 µM (≈ 12.2 µg/mL)
solubility at 60 min ([2]; aqueous buffer, thermodynamic from solid, 25 °C, pH 6.5 sodium phosphate buffer, without cyclodextrin, read-out: solubility without HP-β-CD (value in brackets) (converted)): 17 µM (≈ 7.16 µg/mL)
solubility at 60 min ([2]; aqueous buffer, thermodynamic from solid, 25 °C, pH 8.5 sodium borate buffer, without cyclodextrin, read-out: solubility without HP-β-CD (value in brackets) (converted)): 20 µM (≈ 8.43 µg/mL)
solubility at 60 min ([2]; aqueous buffer, thermodynamic from solid, 37 °C, pH 3.6 sodium acetate buffer, without cyclodextrin, read-out: solubility without HP-β-CD (value in brackets) (converted)): 20 µM (≈ 8.43 µg/mL)
solubility at 60 min ([2]; aqueous buffer, thermodynamic from solid, 37 °C, pH 6.5 sodium phosphate buffer, without cyclodextrin, read-out: solubility without HP-β-CD (value in brackets) (converted)): 1 µM (≈ 0.421 µg/mL)
solubility at 60 min ([2]; aqueous buffer, thermodynamic from solid, 37 °C, pH 8.5 sodium borate buffer, without cyclodextrin, read-out: solubility without HP-β-CD (value in brackets) (converted)): 1 µM (≈ 0.421 µg/mL)
solubility at 60 min ([2]; aqueous buffer, thermodynamic from solid, 60 °C, pH 3.6 sodium acetate buffer, without cyclodextrin, read-out: solubility without HP-β-CD (value in brackets) (converted)): 8 µM (≈ 3.37 µg/mL)
solubility at 60 min ([2]; aqueous buffer, thermodynamic from solid, 60 °C, pH 6.5 sodium phosphate buffer, without cyclodextrin, read-out: solubility without HP-β-CD (value in brackets) (converted)): 8 µM (≈ 3.37 µg/mL)
solubility at 60 min ([2]; aqueous buffer, thermodynamic from solid, 60 °C, pH 8.5 sodium borate buffer, without cyclodextrin, read-out: solubility without HP-β-CD (value in brackets) (converted)): 143 µM (≈ 60.3 µg/mL)
solubility at 60 min ([2]; thermodynamic from solid, 25 °C, pH 3.6 sodium acetate buffer, with HP-β-CD, read-out: S0 (solubility with HP-β-CD)): 68 ± 40 µM (≈ 28.7 µg/mL)
solubility at 60 min ([2]; thermodynamic from solid, 25 °C, pH 6.5 sodium phosphate buffer, with HP-β-CD, read-out: S0 (solubility with HP-β-CD)): 52 ± 24 µM (≈ 21.9 µg/mL)
solubility at 60 min ([2]; thermodynamic from solid, 25 °C, pH 8.5 sodium borate buffer, with HP-β-CD, read-out: S0 (solubility with HP-β-CD)): 90 ± 50 µM (≈ 37.9 µg/mL)
solubility at 60 min ([2]; thermodynamic from solid, 37 °C, pH 3.6 sodium acetate buffer, with HP-β-CD, read-out: S0 (solubility with HP-β-CD)): 90 ± 50 µM (≈ 37.9 µg/mL)
solubility at 60 min ([2]; thermodynamic from solid, 37 °C, pH 6.5 sodium phosphate buffer, with HP-β-CD, read-out: S0 (solubility with HP-β-CD)): 15 ± 9 µM (≈ 6.32 µg/mL)
solubility at 60 min ([2]; thermodynamic from solid, 37 °C, pH 8.5 sodium borate buffer, with HP-β-CD, read-out: S0 (solubility with HP-β-CD)): 14 ± 10 µM (≈ 5.9 µg/mL)
solubility at 60 min ([2]; thermodynamic from solid, 60 °C, pH 3.6 sodium acetate buffer, with HP-β-CD, read-out: S0 (solubility with HP-β-CD)): 41 ± 20 µM (≈ 17.3 µg/mL)
solubility at 60 min ([2]; thermodynamic from solid, 60 °C, pH 6.5 sodium phosphate buffer, with HP-β-CD, read-out: S0 (solubility with HP-β-CD)): 41 ± 20 µM (≈ 17.3 µg/mL)
solubility at 60 min ([2]; thermodynamic from solid, 60 °C, pH 8.5 sodium borate buffer, with HP-β-CD, read-out: S0 (solubility with HP-β-CD)): 283 ± 27 µM (≈ 119 µg/mL)
MIC [3]: 2.5 µM
ABTS^•+ antioxidant activity [4]: 31.56 ± 1.6%
